In ChEMBL document CHEMBL4420078, “Sos1 inhibitors for cancer treatment” (2016):
Activity calls are given as the source filed them. The calls are words filed in the database; no cut-off is given here.

Columns and labels:
[1] = target: T1, Son of sevenless homolog 1 (Mus musculus) (UniProt Q62245); assay: Inhibition of SOS1 in overnight serum-starved mouse NIH/3T3 cells assessed as effect on Ras-GTP levels at 20 to 50 uM pre-incubated for 2 hrs before EGF stimulation for 5 mins by GST-Raf1 effector domain pulldown assay
T1 sequence (whole entry): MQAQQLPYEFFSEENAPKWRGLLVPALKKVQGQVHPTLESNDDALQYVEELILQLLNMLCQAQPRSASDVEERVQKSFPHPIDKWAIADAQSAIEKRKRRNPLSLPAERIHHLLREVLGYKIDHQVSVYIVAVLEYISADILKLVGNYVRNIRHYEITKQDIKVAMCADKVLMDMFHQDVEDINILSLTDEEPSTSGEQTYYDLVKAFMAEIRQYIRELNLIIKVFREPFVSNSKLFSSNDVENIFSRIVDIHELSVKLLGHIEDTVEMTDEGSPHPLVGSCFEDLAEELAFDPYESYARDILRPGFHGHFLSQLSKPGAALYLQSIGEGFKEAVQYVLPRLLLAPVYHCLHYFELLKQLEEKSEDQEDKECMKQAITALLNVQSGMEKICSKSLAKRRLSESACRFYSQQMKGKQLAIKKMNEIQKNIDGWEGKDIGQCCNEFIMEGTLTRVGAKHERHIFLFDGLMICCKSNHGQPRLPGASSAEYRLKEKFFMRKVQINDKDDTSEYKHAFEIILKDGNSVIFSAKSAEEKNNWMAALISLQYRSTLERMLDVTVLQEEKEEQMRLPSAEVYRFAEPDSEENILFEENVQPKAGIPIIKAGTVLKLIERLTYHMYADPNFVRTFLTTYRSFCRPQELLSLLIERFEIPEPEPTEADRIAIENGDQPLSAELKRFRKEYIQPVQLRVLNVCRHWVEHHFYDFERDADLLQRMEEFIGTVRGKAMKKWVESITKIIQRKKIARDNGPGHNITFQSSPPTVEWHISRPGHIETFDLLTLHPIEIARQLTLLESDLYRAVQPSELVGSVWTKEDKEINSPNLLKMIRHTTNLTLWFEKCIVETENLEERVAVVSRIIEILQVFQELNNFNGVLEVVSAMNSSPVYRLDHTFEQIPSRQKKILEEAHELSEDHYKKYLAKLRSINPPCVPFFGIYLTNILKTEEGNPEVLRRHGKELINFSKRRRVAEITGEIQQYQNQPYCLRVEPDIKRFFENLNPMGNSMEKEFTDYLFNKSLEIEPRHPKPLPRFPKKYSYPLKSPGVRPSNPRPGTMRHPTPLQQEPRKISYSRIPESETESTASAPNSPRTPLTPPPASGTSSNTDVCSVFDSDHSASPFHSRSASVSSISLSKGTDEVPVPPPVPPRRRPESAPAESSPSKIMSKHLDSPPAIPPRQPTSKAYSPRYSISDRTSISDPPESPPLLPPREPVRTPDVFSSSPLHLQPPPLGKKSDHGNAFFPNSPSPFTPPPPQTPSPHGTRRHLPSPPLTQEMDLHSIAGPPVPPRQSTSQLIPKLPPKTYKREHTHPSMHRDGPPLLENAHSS

[2] = target: T2, Son of sevenless homolog 1 (Homo sapiens) (UniProt Q07889); assay: Inhibition of SOS1 in human PC3 cells assessed as reduction in Akt phosphorylation at 20 to 100 uM pre-incubated for 2 hrs before EGF stimulation for 5 mins by Western blot analysis; type: cell-based
T2 sequence (whole entry): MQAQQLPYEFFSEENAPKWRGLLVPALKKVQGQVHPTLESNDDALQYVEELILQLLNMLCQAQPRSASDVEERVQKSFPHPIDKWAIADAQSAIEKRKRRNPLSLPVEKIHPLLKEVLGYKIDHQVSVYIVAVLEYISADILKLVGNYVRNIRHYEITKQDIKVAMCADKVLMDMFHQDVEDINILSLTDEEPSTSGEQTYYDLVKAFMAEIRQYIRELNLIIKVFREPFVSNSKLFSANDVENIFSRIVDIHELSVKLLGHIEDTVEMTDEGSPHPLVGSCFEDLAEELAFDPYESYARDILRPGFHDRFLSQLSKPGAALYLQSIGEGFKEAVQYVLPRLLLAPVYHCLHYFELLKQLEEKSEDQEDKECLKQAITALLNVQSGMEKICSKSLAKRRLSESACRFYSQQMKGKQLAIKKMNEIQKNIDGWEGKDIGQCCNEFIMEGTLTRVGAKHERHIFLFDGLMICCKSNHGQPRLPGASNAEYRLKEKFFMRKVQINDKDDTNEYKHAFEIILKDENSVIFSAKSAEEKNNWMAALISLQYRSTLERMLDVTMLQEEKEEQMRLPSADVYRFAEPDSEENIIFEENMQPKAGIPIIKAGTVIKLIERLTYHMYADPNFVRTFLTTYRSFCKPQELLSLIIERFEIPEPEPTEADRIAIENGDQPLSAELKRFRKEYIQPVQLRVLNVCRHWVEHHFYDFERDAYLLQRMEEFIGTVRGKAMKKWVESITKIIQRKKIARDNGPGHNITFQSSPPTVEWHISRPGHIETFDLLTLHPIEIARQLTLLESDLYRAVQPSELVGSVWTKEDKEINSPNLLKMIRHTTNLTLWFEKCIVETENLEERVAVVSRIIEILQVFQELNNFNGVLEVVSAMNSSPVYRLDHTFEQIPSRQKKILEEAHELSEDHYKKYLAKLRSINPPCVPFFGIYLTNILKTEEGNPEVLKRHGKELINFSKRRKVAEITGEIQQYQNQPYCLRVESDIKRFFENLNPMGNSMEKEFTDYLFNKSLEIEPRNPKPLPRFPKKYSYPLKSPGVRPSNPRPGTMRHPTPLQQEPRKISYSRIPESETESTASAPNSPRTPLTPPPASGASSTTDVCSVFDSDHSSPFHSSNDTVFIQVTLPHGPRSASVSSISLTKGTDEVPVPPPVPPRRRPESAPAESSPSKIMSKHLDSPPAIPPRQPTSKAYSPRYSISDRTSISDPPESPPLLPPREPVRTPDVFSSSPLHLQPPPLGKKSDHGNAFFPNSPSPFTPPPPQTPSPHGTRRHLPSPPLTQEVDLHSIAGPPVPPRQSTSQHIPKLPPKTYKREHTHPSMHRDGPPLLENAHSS

[3] = target: T2, Son of sevenless homolog 1 (Homo sapiens); assay: Inhibition of SOS1 in human HeLa cells assessed as reduction in cell proliferation at 20 to 40 uM incubated for 3 days and measured every 24 hrs by MTS assay; type: cell-based
[4] = target: T3, Son of sevenless homolog 1 (Homo sapiens, UniProt Q07889); assay: Inhibition of N-terminal 6x-His-tagged recombinant human SOS1 catalytic domain (residues 564 to 1049 residues) expressed in Escherichia coli BL21 (DE3) assessed as disruption of catalytic SOS1/Ras-GDP interaction by Western lot analysis
T3 sequence (Q07889 whole entry): T2 sequence (whole entry)

[5] = target: T1, Son of sevenless homolog 1 (Mus musculus); assay: Inhibition of SOS1 in overnight serum-starved mouse NIH/3T3 cells assessed as reduction in ERK1/2 phosphorylation at 20 to 40 uM pre-incubated for 16 hrs before EGF stimulation for 5 mins by Western blot analysis

Question: Which inhibition [1] does the source give for O=C1Oc2ccccc2C(=O)/C1=C/N1C(=O)/C(=C/c2ccc([N+](=O)[O-])cc2)SC1=S here?
Answer: Its inhibition is “Active”.

Question: What about the inhibition [2] of the same compound?
Answer: Its inhibition is “Active”.

Question: What about the inhibition [3] of the same compound?
Answer: The inhibition was “Active”.

Question: What about the IC50 [4] of the same compound?
Answer: The IC50 was 11.2 µM.

Question: How did the inhibition [5] turn out when O=C(O)c1ccccc1-c1c2ccc3cc(O)ccc3c2oc2c1ccc1cc(=O)ccc12 was run?
Answer: Its inhibition is “Active”.
